What all share (test): growth of human tumour cells (NCI), 48 h
The subject of experiment [1] is DU-145 prostate.
In experiment [2] the test system is SK-MEL-2 melanoma.
The subject of experiment [3] is SNB-75 CNS.
Experiment [4] has as its system MDA-MB-435.
Experiment [5] has as its system UACC-62 melanoma.
Experiment [6] concerns SF-539 CNS.
For experiment [7], the system named is HCT-116 colon.
Experiment [8] deals with RPMI-8226 leukemia.
The test system of experiment [9] is MALME-3M melanoma.
Experiment [10] deals with T-47D breast.

These results are taken from PubChem BioAssay (NCI).

Several values for one entry are separate records, joined by “and”; a condition that tells them apart may be missing. Identical values can stand only once.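 Step 1: Grow cells in 96-well plates. Step 2: Expose to compound for 48 hours at 5 concentrations. Step 3: Interpolate endpoints linearly; if unreached, use highest concentration. GI50 = concentration required for 50% inhibition of growth. At the TGI there is no net growth.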

On to `Cc1cc(N2CCOCC2)nc(N[C@@H]2CCC[C@H](Nc3ccnc4cc(Cl)ccc34)C2)n1`, for which the GI50 in experiment [1] is 3.82 µM; in [2] it was 2.07 µM; in experiment [3], 1.6 µM; in [4], 1.86 µM; in [5], 1.82 µM; in [6], 1.61 µM. Besides, the GI50 in experiment [7] was 1.98 µM; in experiment [8], 2.09 µM; in experiment [9] it was 1.95 µM; in [10], 1.68 µM. In addition, the TGI is 14.7 µM in experiment [1]; 4.02 µM in experiment [2]; 4.01 µM in [3]; 3.39 µM in experiment [4]; 3.43 µM in experiment [5]; 3.09 µM in experiment [6]. Moreover, the TGI in [7] is 4.26 µM; in experiment [8], 5.25 µM; in [9], 3.67 µM; in [10] it was 3.71 µM.

Take `O=C(NCCCO)c1cc(Cl)ccc1O`: the GI50 was 4.41 µM in [1]; 2.82 µM in experiment [2]; 2.44 µM in experiment [3]; 2.68 µM in experiment [4]; 3.09 µM in experiment [5]; 4.85 µM in experiment [6]. Also, the GI50 in experiment [7] was 1.75 µM; in [8] it was 0.704 µM; in [9], 1.85 µM; in [10] it was 1.67 µM. Also, the TGI was determined as 16.1 µM in experiment [1]; 6.54 µM in experiment [2]; 15.1 µM in [3]; 12.1 µM in experiment [4]; 15.8 µM in experiment [5]; 17.5 µM in [6]. Besides, the TGI was determined as 10.5 µM in [7], 2.68 µM in experiment [8], 8.33 µM in experiment [9] and 18 µM in [10].

Turning to `CCC(=C/[C@H](C)C/C=C/C(C)=C/[C@@H](C)C(=O)[C@@H](C)[C@H](O)[C@@H](C)CC)/C=C/[C@@H]1OC(=O)C=C[C@H]1C`, the GI50 in experiment [1], in experiment [2], in experiment [3], in experiment [4], in [5] and in experiment [6] was under 0.01 µM throughout. In addition, the GI50 in experiment [7], in [8], in experiment [9] and in [10] was under 0.01 µM throughout. Further, the TGI in experiment [1] is 4.42 µM; in [2], under 0.01 µM; in experiment [3] it was under 0.0465 µM; in [4], under 0.01 µM; in experiment [7], under 0.01 µM; in experiment [8], under 0.01 µM. Moreover, the TGI stood at 0.0157 µM in experiment [9] and 2.13 µM in experiment [10].

In the case of `Nc1nnnn1CCO`, the TGI in experiment [1], in experiment [2], in experiment [3], in experiment [4], in experiment [5] and in experiment [6] was over 100 µM throughout. For the same compound, the TGI in experiment [7], in experiment [8], in experiment [9] and in [10] was over 100 µM each time.

`O=C(O)C1(C(=O)O)CCC1.[NH2-].[NH2-].[Pt+2]`: the GI50 was 121 µM and 94.6 µM in experiment [1]; 161 µM and > 250 µM in [2]; 108 µM and > 114 µM in experiment [3]; 180 µM and > 250 µM in experiment [4]; 35.1 µM and > 114 µM in experiment [5]; 81.2 µM and 96 µM in experiment [6]. Moreover, the GI50 in experiment [7] is 176 µM and 196 µM; in experiment [8], 165 µM and 186 µM; in experiment [9] it was 72.2 µM and 107 µM; in experiment [10], over 250 µM. Further, the TGI was over 250 µM in experiment [1]; 244 µM and > 250 µM in [2]; 247 µM and > 250 µM in experiment [3]; over 250 µM in [4]; 140 µM and > 250 µM in experiment [5]; 221 µM and > 250 µM in experiment [6]. The TGI in [7] is 232 µM and > 250 µM; in [8], 234 µM and > 250 µM; in [9] it was 180 µM and 192 µM; in experiment [10] it was over 250 µM.

As to `CC(=O)c1c(C)[nH]c(-c2nc3ccc(N4CCN(C)CC4)cc3[nH]2)c1-c1ccc(N(C)C)cc1`, the GI50 in experiment [1] was 5.37 µM; in experiment [2], 2.58 µM; in [3] it was 0.0456 µM; in [4], 0.554 µM; in experiment [5], 0.175 µM; in [6], 1.15 µM. Also, the GI50 is 0.803 µM in experiment [7], 0.25 µM in experiment [8], 0.812 µM in experiment [9] and 0.434 µM in experiment [10]. The TGI in experiment [1] is over 83.6 µM; in experiment [2], 17.6 µM; in experiment [3], 1.74 µM; in experiment [4], 13.7 µM; in experiment [5], 13 µM; in experiment [6] it was 17.7 µM. For the same compound, the TGI was determined as 13.6 µM in experiment [7], 1.64 µM in [8], 5.1 µM in [9] and 16.6 µM in experiment [10].

Consider `N=c1ccn(O)cc1/C=C1/C(=O)Nc2ccccc21`, for which the GI50 in experiment [1], in experiment [2], in experiment [3], in experiment [4], in experiment [5] and in experiment [6] was over 100 µM throughout. Also, the GI50 in [7], in [8], in experiment [9] and in experiment [10] was over 100 µM each time. Besides, the TGI in [1], in [2], in experiment [3], in [4], in experiment [5] and in experiment [6] was over 100 µM in each case. The TGI in [7], in [8], in [9] and in experiment [10] was over 100 µM throughout.
